Laboratory results reported in patent US20060063759A1, “Tricyclic steroid hormone nuclear receptor modulators” (priority 2002, published 2006).

Legend:
[1] = target: T1, human MR (Homo sapiens, UniProt P08235); experiment: Mineralocorticoid Receptor Binding Assay ([3H]-aldosterone); details: [3H]-aldosterone binding, human MR expressed in Sf9 cells; read-out: MR Ki
T1 construct: The full length human MR gene is cloned from a human kidney or human brain cDNA library; His tag from the pAcHLT vector (own knowledge); made in house; host or cells: Sf9 insect cells (baculovirus, pAcHLT transfer vector)
T1 sequence (P08235 1-984): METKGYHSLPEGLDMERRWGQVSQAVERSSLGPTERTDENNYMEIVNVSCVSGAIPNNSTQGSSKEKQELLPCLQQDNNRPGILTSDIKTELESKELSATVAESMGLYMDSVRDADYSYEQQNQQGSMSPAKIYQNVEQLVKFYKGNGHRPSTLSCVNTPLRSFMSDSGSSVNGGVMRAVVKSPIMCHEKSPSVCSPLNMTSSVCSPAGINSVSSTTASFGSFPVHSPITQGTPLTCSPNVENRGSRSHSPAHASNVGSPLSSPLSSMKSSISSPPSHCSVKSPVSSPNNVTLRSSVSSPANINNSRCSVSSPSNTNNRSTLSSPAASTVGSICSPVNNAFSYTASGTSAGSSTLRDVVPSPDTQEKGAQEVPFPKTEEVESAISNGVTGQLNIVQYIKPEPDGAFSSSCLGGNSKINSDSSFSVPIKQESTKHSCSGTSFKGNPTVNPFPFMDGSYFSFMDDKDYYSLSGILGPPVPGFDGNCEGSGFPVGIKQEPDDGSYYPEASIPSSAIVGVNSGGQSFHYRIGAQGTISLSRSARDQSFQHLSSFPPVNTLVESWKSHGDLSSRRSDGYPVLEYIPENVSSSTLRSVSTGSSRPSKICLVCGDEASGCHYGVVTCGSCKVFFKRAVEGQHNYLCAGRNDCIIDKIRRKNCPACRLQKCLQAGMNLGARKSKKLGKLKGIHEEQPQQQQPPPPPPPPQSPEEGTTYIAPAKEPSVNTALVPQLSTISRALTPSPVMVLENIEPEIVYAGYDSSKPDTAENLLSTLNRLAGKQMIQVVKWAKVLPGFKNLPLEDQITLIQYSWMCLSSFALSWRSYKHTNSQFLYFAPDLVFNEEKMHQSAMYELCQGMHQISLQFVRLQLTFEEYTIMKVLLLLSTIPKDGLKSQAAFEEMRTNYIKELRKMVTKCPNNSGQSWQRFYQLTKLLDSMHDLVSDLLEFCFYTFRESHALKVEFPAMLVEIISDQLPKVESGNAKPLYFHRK
Method in brief: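 Lysate supernatant of Sf9 cells expressing full-length human MR (20-25 μg protein) was incubated with 0.5 nM [3H]-aldosterone and test compound in molybdate/Tris/phosphate/glycerol buffer, pH 7.5, ~16 h at 4 °C. Bound ligand was filtered and counted by scintillation; IC50 is the concentration halving [3H]-aldosterone binding.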

[2] = target: T2, glucocorticoid receptor (Homo sapiens, UniProt P04150); experiment: Glucocorticoid Receptor Binding Assay ([3H]-dexamethasone, A549 cell extract); details: [3H]-dexamethasone binding, read-out: GR Ki
T2 construct: containing 50-200 ug of A549 cell extract and 1.86 nM [^3H]-dexamethasone; host or cells: A549 human lung epithelial cells (sonicated cell extract)
T2 sequence (P04150 1-777): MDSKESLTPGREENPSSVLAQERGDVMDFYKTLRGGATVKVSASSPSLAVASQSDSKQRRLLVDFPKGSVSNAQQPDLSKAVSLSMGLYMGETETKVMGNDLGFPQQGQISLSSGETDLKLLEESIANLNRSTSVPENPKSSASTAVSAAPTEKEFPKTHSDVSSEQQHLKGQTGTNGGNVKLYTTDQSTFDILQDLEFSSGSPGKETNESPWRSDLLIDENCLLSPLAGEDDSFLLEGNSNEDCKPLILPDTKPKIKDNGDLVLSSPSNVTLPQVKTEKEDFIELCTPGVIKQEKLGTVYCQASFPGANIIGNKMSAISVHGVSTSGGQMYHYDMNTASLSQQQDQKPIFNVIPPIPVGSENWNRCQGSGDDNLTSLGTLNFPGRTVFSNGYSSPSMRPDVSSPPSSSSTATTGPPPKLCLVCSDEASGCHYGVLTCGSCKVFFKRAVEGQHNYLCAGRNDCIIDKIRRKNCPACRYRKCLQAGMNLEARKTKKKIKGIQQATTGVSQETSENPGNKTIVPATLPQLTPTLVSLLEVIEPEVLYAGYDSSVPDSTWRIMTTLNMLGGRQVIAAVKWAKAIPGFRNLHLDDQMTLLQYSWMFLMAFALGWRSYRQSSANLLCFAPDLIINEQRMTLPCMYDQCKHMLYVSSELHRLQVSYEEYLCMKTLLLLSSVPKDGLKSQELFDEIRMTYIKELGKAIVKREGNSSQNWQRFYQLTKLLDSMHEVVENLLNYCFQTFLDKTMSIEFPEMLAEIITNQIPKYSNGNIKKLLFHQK
Method in brief: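 A549 cell extract (50–200 ug) incubated with 1.86 nM [3H]-dexamethasone and test compound for 16 h at 4 °C in Tris-HCl pH 7.2 buffer with glycerol and molybdate. Unbound radioligand removed by dextran-coated charcoal, then supernatant bound counts measured by scintillation.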

Ki [1]	Ki [2]	SMILES
< 500 nM	< 1000 nM	Nc1cccc(C=C2c3ccccc3[C@H]3C[C@H]3c3ccccc32)c1 [Example 604]
< 500 nM	< 10000 nM	CS(=O)(=O)Nc1cccc(/C=C2/c3ccc(F)cc3CCc3ncccc32)c1 [Example 510]
< 500 nM	< 500 nM	COc1ccc2c(c1OC)CSc1ccccc1/C2=C/c1cccc(NS(C)(=O)=O)c1 [Example 684]
< 500 nM	< 500 nM	CS(=O)(=O)Nc1cccc(C=C2c3ccccc3CCc3cc(F)ccc32)c1 [199(a), N-[3-(2-Fluoro-10,11-dihydro-dibenzo[a,d]cyclohepten-5-ylidenemethyl)-phenyl]-methanesulfonamide]
< 500 nM	< 500 nM	CS(=O)(=O)Nc1cccc(/C=C2\c3ccccc3CCc3ccc(O)cc32)c1 [Example 352]
< 500 nM	< 500 nM	COc1ccc2c(c1)CSc1ccccc1/C2=C(\C)c1cccc(NS(C)(=O)=O)c1 [Example 842]
< 500 nM	< 500 nM	Oc1cccc(/C=C2\c3ccccc3CCc3c(O)cccc32)c1 [Example 376]
< 500 nM	< 500 nM	CS(=O)(=O)Nc1cccc(CC2c3ccccc3CCc3ccccc32)c1 [Example 125, N-[3-(10,11-Dihydro-5H-dibenzo[a,d]cyclohepten-5-ylmethyl)-phenyl]-methanesulfonamide]
< 500 nM	< 500 nM	CCC(=C1c2ccccc2CCc2ccccc21)c1cccc(NS(C)(=O)=O)c1 [Example 763]
< 500 nM	< 500 nM	O=C(Nc1cccc(/C=C2\c3ccccc3CCc3cc(Cl)ccc32)c1)C(F)(F)F [Example 413]
< 500 nM	< 10000 nM	Cc1ccc(CC2c3ccccc3CCc3ccccc32)cc1NS(C)(=O)=O [Example 286]
< 500 nM	< 500 nM	CS(=O)(=O)Nc1cccc(/C=C2/c3cc(F)ccc3COc3ccccc32)c1 [Example 729]
< 500 nM	< 500 nM	C/C(=C1/c2ccccc2COc2c(F)cccc21)c1cccc(NS(C)(=O)=O)c1 [Example 788]
< 500 nM	< 500 nM	CS(=O)(=O)Nc1cccc(/C=C2\c3ccccc3CCc3cc(OCCN4CCOCC4)ccc32)c1 [Example 196, N-{3-[2-(2-Morpholin-4-yl-ethoxy)-10,11-dihydro-dibenzo[a,d]cyclohepten-5-ylidenemethyl]-phenyl}-methanesulfonamide]
< 500 nM	< 500 nM	COc1ccc2c(c1)[C@@H](Cc1cccc(NS(C)(=O)=O)c1)c1ccccc1CC2 [Example 349]
< 500 nM	< 500 nM	Oc1cccc(C=C2c3ccccc3CCc3c(Cl)cccc32)c1 [211(a), 3-(1-Chloro-10,11-dihydro-dibenzo[a,d]cyclohepten-5-ylidenemethyl)-phenol]
< 500 nM	< 500 nM	C/C(=C1/c2ccc(C)cc2CCc2cc(F)ccc21)c1cccc(NS(C)(=O)=O)c1 [Example 832]
< 500 nM	< 500 nM	Oc1cc(C=C2c3ccccc3CCc3ccccc32)ccc1F [Example 149, 5-(10,11-Dihydro-dibenzo[a,d]cyclohepten-5-ylidenemethyl)-2-fluoro-phenol]
< 500 nM	< 500 nM	Oc1cccc(C=C2c3ccccc3CCc3cc(Cl)ccc32)c1 [181(a), 3-(2-Chloro-10,11-dihydro-dibenzo[a,d]cyclohepten-5-ylidenemethyl)-phenol]
< 500 nM	< 500 nM	N#Cc1cccc2c1CCc1ccccc1/C2=C/c1cccc(O)c1 [Example 363]

Ki [1]	Ki [2]	SMILES
< 500 nM	< 500 nM	CS(=O)(=O)Nc1cccc(C=C2c3ccccc3CCc3ccc(S(C)(=O)=O)cc32)c1 [Example 321]
< 500 nM	< 500 nM	O=c1[nH]c2ccc(C=C3c4ccccc4OCc4c(F)cccc43)cc2[nH]1 [Example 713]
< 500 nM	< 500 nM	CC/C(=C1/c2ccccc2COc2ccccc21)c1cccc(NS(C)(=O)=O)c1 [Example 800]
< 500 nM	< 500 nM	CS(=O)(=O)Nc1cc(F)cc(/C=C2/c3ccc(F)cc3CCc3nc(C(F)F)ccc32)c1 [Example 594]
< 500 nM	< 500 nM	CCC/C(=C1\c2ccccc2COc2ccccc21)c1cccc(NS(C)(=O)=O)c1 [Example 801]
< 500 nM	< 10000 nM	CC(=O)Nc1cccc(/C=C2\c3ccc(F)cc3CCc3ncccc32)c1 [Example 545]
< 500 nM	< 10000 nM	Fc1ccc2c(c1)CCc1ncccc1/C2=C/c1ccc(C(F)F)cc1 [Example 543]
< 500 nM	< 500 nM	N#Cc1ccc2c(c1)CCc1ccccc1/C2=C\c1cccc(O)c1 [Example 341]
< 500 nM	< 1000 nM	Cc1ccc(C=C2c3ccccc3CCc3ccccc32)cc1NS(C)(=O)=O [Example 45, N-[5-(10,11-Dihydro-dibenzo[a,d]cyclohepten-5-ylidenemethyl)-2-methyl-phenyl]-methanesulfonamide]
< 500 nM	< 500 nM	COc1ccc2c(c1)OCc1ccccc1/C2=C\c1cccc(NS(C)(=O)=O)c1 [Example 661]
< 500 nM	< 500 nM	O=c1[nH]c2cc(/C=C3\c4ccccc4CCc4ncsc43)ccc2o1 [Example 562]
< 500 nM	< 500 nM	O=c1[nH]c2cc(C=C3c4ccc(F)cc4CCc4cc(F)ccc43)ccc2s1 [Example 457]
< 500 nM	< 1000 nM	CS(=O)(=O)Nc1cccc(/C=C2\c3ccccc3C[S+]([O-])c3ccccc32)c1 (centres unmarked) [Example 263, N-[3-(10-Oxo-10,11-dihydro-10λ^4-thia-dibenzo[a,d]cyclohepten-5-ylidenemethyl)-phenyl]-methanesulfonamide]
< 500 nM	< 500 nM	O=c1[nH]c2cc(/C=C3\c4ccccc4COc4cc(F)ccc43)ccc2o1 [Example 633]
< 500 nM	< 500 nM	O=c1[nH]c2cc(/C=C3\c4ccccc4COc4ccccc43)ccc2o1 [Example 620]
< 500 nM	< 500 nM	CS(=O)(=O)Nc1cccc(/C=C2\c3ccccc3COc3cc(C(F)(F)F)ccc32)c1 [Example 683]
< 500 nM	< 500 nM	Cc1ccc2c(c1)OCc1ccccc1/C2=C\c1cccc(NS(C)(=O)=O)c1 [Example 676]
< 500 nM	< 500 nM	COc1cccc2c1COc1ccccc1/C2=C\c1cccc(NS(C)(=O)=O)c1 [Example 707]
< 500 nM	< 500 nM	CSc1ccc2c(c1)/C(=C\c1cccc(NS(C)(=O)=O)c1)c1ccccc1CC2 [Example 322]
< 500 nM	< 500 nM	CS(=O)(=O)Nc1cc(/C=C2\c3ccc(F)cc3CCc3ncccc32)ccc1F [Example 524]
